Consider eleven compounds from ChEMBL document CHEMBL4706518, “Discovery of MGS0274, an ester prodrug of a metabotropic glutamate receptor 2/3 agonist with improved oral bioavailability” (Eur J Med Chem, 2020).

Each structure is given as a SMILES string. Bounds are passed on as bounds.

Data set [1] can be described thus: Stability of compound in PBS at pH 6.5 assessed as remaining parent compound at 50 ug/ml after 1 hr by HPLC analysis. The class given is physicochemical. To be noted: PBS at pH 6.5, pH 6.5, at 50 µg/mL, read-out: Stabilty.
A short description of data set [2]: Oral bioavailability in monkey at 4.92 umol/kg measured up to 24 hrs by LC-MS/MS analysis. In kind it is ADME, organism-based, Macaca mulatta. Conditions: rhesus monkey, in vivo, at 4.92 µmol/kg.
A short description of data set [3]: Stability of compound in HCL at pH 1.2 assessed as remaining parent compound at 50 ug/ml after 1 hr by HPLC analysis. In kind it is physicochemical. Conditions: HCl at pH 1.2, pH 1.2, at 50 µg/mL, read-out: Stabilty.
A short description of data set [4]: Lipophilicity, logD of compound in n-octanol and phosphate buffered saline at 2 mg after 1.5 hrs by HPLC based shake flask method. In kind it is physicochemical. To be noted: for logD at 1.5 h: n-octanol/phosphate buffered saline.

The term bioavailability denotes the share of a dose that reaches the circulation, judged against a reference dose that is usually intravenous. For orientation: logD means the decadic logarithm of the distribution of all forms, ionised or not, between an organic phase and buffer at a given pH. Turning to `CC(OC(=O)O[C@@H]1C[C@H](C)CC[C@H]1C(C)C)OC(=O)[C@H]1[C@@H]2C[C@H](F)[C@@](N)(C(=O)O)[C@@H]21` (stereo partly drawn), the remaining at 1 h, 50 ug/ml in data set [1] and in data set [3] was 100% each time. Moreover, the bioavailability in data set [2] turned out to be 58%. Further, the logD at 1.5 h in data set [4] was 2.77.
Take `N[C@]1(C(=O)O)[C@H]2[C@@H](C[C@@H]1F)[C@@H]2C(=O)OC1OC(=O)c2ccccc21` (stereo partly drawn): the figures for the remaining at 1 h, 50 ug/ml in data set [1] and in data set [3] were 97% and 99%, respectively. In data set [4], this compound had a logD at 1.5 h of -0.71.
As to `CC(OC(=O)OC1CCCCC1)OC(=O)[C@H]1[C@@H]2C[C@H](F)[C@@](N)(C(=O)O)[C@@H]21` (stereo partly drawn), the remaining at 1 h, 50 ug/ml turned out to be 97% in data set [1] and 100% in data set [3]. The compound further displayed a bioavailability in data set [2] of 18%. Besides, the logD at 1.5 h in data set [4] stood at 0.58.
For `CC(C)[C@@H]1CC[C@@H](C)C[C@H]1OC(=O)O[C@H](C)OC(=O)[C@H]1[C@@H]2C[C@H](F)[C@@](N)(C(=O)O)[C@@H]21`, the logD at 1.5 h in data set [4] was above 1.78.
As to `CC(OC(=O)OC1CCCCC1)OC(=O)[C@@]1(N)[C@H]2[C@@H](C[C@@H]1F)[C@@H]2C(=O)O` (stereo partly drawn), the remaining at 1 h, 50 ug/ml came to 25% in data set [1] and 75% in data set [3]. In addition, the logD result in data set [4] (1.5 h) is “Nd(Unstable)”.
In the case of `CC(C)OC(=O)OC(C)OC(=O)[C@H]1[C@@H]2C[C@H](F)[C@@](N)(C(=O)O)[C@@H]21` (stereo partly drawn), the remaining at 1 h, 50 ug/ml in data set [1] was 101%; in data set [3], 102%. Further, in data set [4], the logD at 1.5 h came out at 0.06.
On to `CC(OC(=O)C(C)C)OC(=O)[C@H]1[C@@H]2C[C@H](F)[C@@](N)(C(=O)O)[C@@H]21` (stereo partly drawn), for which the remaining at 1 h, 50 ug/ml in data set [1] amounted to 101%; in data set [3], 100%. Besides, in data set [4], the logD at 1.5 h is below -0.65.
On to `CC(OC(=O)OC12CC3CC(CC(C3)C1)C2)OC(=O)[C@H]1[C@@H]2C[C@H](F)[C@@](N)(C(=O)O)[C@@H]21` (stereo partly drawn), for which the figures for the remaining at 1 h, 50 ug/ml in data set [1] and in data set [3] were 97% and 95%, respectively. The same compound registered a logD at 1.5 h in data set [4] of 1.67.
For the compound `CC(C)(C)C(=O)OCOC(=O)[C@H]1[C@@H]2C[C@H](F)[C@@](N)(C(=O)O)[C@@H]21`, the results for the remaining at 1 h, 50 ug/ml in data set [1] and in data set [3] were 99% and 100%, respectively. This compound also gave a logD at 1.5 h in data set [4] of -0.54.
On the same counts, the results for `Cc1oc(=O)oc1COC(=O)[C@@]1(N)[C@H]2[C@@H](C[C@@H]1F)[C@@H]2C(=O)O` are 54%, 95% and -0.95.
On the same counts, the results for `Cc1oc(=O)oc1COC(=O)[C@H]1[C@@H]2C[C@H](F)[C@@](N)(C(=O)O)[C@@H]21` are 98%, 99% and -1.69.
